Publication PMC3556473, “Absorption, metabolism and excretion of [^14C]pomalidomide in humans following oral administration” (Cancer Chemotherapy and Pharmacology, 2012)
Like-named read-outs stand apart in the source and are kept apart here. Blank lines part the entries; values can stand above or below the compound they belong to.

What was measured:
[1] = Plasma pharmacokinetics of pomalidomide and its enantiomers (chiral LC–MS/MS) after a single oral 2 mg dose of [14C]pomalidomide; format: in vivo, human; conditions: for C max: healthy male subjects; for C max / AUC0−t / AUC0−∞ / t ½: mean ± SD (n = 8); for T max: median (min–max)
Text: This was an open-label, in-patient, single-dose study in eight non-smoking healthy male adult volunteers conducted in accordance with Good Clinical Practices (GCP) and in compliance with the Declaration of Helsinki. The protocol and consent form were reviewed and approved by the appropriate institutional review board, and all study participants gave written informed consent, before initiation of any study-related procedure. Male subjects were eligible based on standard inclusion/exclusion criteria and were excluded if they had exposure to excess radiation or participated in a study involving radioisotopes within the previous 12 months. Subjects entered the study center on the day prior to dosing and remained at the center for up to 15 days following dosing or until the total radioactivity recovered in excreta was ≥90 % or the radioactivity recovered in excreta per day on three consecutive days was ≤1 % of the administered radioactive dose.
Each subject was administered a single oral suspension of 2 mg (100 μCi) of [^14C]pomalidomide in seltzer water (75 mL) followed by administration of an additional 140 mL of distilled water. Subjects were fasted for 8 h prior to and 4 h following dose administration. The residual radioactivity in the dosing vials was determined, and for six of the eight subjects (subjects 1–4, 6 and 8), the administered dose (1.93–2.02 mg) was close to the target dose of 2 mg. For subjects 5 and 7, a significant amount of radioactivity remained in the dose vial, resulting in administered doses of 1.59 and 1.51 mg, respectively. Calculations for percent of dose recovered in excreta were based on the actual administered doses.
Blood was collected into pre-chilled K3EDTA tubes at pre-dose, 0.5, 1, 1.5, 2, 2.5, 3, 4, 6, 8, 10, 12, 24, 48, 72, 120 and 168 h following dose administration. Blood for radioactivity counting was transferred to a clean tube and stored at or below 4 °C until analyzed. Plasma was harvested by centrifugation from the remaining blood. A plasma sample for radioactivity counting was transferred to a fresh tube. Three plasma aliquots were transferred to tubes containing citric acid for metabolite profiling and for determination of pomalidomide enantiomer concentrations in plasma. Urine was collected pre-dose, 0–6, 6-12, 12–24 and every 24 h thereafter up to 216 h (9 days) following dose administration and were stabilized with one volume of pH 1.5 Sorensen’s citrate buffer (25 mM sodium citrate buffer adjusted to pH 1.5). During the 12- to 24-h collection interval for subject 4, approximately 550 mL of urine was inadvertently poured into the wrong collection urinal and the sample was lost. […] Individual fecal samples were collected pre-dose and for up to 9 days following dose administration, and homogenized using approximately three volumes by weight of pH 1.5 Sorensen’s citrate buffer. All urine, fecal homogenates and plasma samples were stored at or below −20 °C until analyzed.
Plasma concentrations of each pomalidomide enantiomer were determined using a chiral LC–MS/MS assay. The pomalidomide enantiomers and ^13C-labeled pomalidomide (internal standard; IS) were extracted from plasma (stabilized with citric acid) using liquid–liquid extraction with methyl tertiary butyl ether. After transfer to a new tube, the solvent was evaporated, and the samples were reconstituted and injected for LC–MS/MS analysis using a Chiral AGP (50 × 3.0 mm, 5 μm; Chrom Tech, Inc., Apple Valley, MN) analytical column. Positive ions were measured in the multiple reaction monitoring (MRM) mode using a Sciex API-4000 tandem mass spectrometer equipped with a Turbo Ion Spray source. For the QC samples, the accuracy ranged from 91.0 to 106.9 %. For study samples, the amount of [^14C]-labeled material was accounted for when calculating the concentration of enantiomers in plasma using an appropriate correction factor. […]

[2] = lenalidomide, cited from earlier work
[3] = Metabolite profiling of urine and feces (% of dose excreted); format: in vivo, human; conditions: radiochromatography; for % of dose excreted, Urine: pooled urine 0–72 h
Procedure: For each subject, urine samples were pooled using an equal percentage by volume of the 0–6, 6–12, 12–24, 24–48 and 48–72 h samples. Pools of the 0–6, 6–12, 12–24, 24–48 and 48-72 h collections were also prepared across subjects and analyzed for metabolite profiling. Samples were mixed and centrifuged prior to the supernatants being transferred to fresh tubes for metabolite profiling analysis.
For each subject, fecal homogenates for metabolite profiling were pooled using an equal percentage by weight of the 0–24, 24–48, 48–72 and 72–96 h samples. Pools of the 0–24, 24-48, 48–72 and 72–96 h collections were also prepared across subjects and analyzed for metabolite profiling. An aliquot of each pool was extracted with acetonitrile; samples were mixed and centrifuged. The supernatant was removed and the pellets re-suspended with 0.1 % formic acid and extracted with acetonitrile. The combined supernatants were evaporated to dryness under a stream of nitrogen and the residue re-suspended in methanol:0.1 % formic acid in water (1:1). Samples were assayed for extraction recovery prior to metabolite profiling. A control fecal homogenate spiked with [^14C]pomalidomide was extracted in a similar manner to determine the extraction efficiency and stability of [^14C]pomalidomide.
(§1) HPLC analysis for metabolite profiling (HPLC Method 1) was performed using a Waters 2695 Alliance Separation Module (Waters Corp., Milford, MA) with the autosampler set to 4 °C. [^14C]Pomalidomide and metabolites were separated using an ACE C18 column (150 × 4.6 mm, 3 μm; Advanced Chromatography Technologies, Aberdeen, Scotland) equipped with an ACE C18 guard column (10 × 3 mm, 3 μm). The mobile phases used were 25 mM ammonium acetate in water: pH 5.5 with formic acid (mobile phase A) and methanol (mobile phase B). The column temperature was 30 °C, and the flow rate was 0.7 mL/min. The linear gradient was delivered as follows: 0–2 min 100 % A; 2–38 min to 64 % A; 38–44 min to 0 % A; 44–48 min hold at 0 % A; return to initial conditions over 2 min.
(§2) Radioactivity profiles for plasma and excreta were determined by collecting the column eluate into 96-well Deepwell LumaPlates™ at a rate of 0.25 min/fraction. The plates were dried and the radioactivity in each well determined using a PerkinElmer TopCount® NXT™ Microplate Scintillation Counter. HPLC radiochromatograms were reconstructed using LC-ARC data handling software.

[4] = Plasma pharmacokinetics of pomalidomide and circulating metabolites by radiochromatography (metabolite profiling); format: in vivo, human; set-up: AUC0–24 / AUC0−∞: concentration or dose not given beside the values
Procedure: Individual plasma samples collected from all subjects at 1, 2.5, 4, 6, 10, 12 and 24 h post-dose were analyzed for metabolite profiling. Samples were extracted with acetonitrile, the supernatant was removed, and the pellet was washed with 0.1 % formic acid in water and extracted again with acetonitrile. The combined supernatants were adjusted to 15 or 25 mL by adding acetonitrile then evaporated to dryness under a stream of nitrogen. The residues were re-suspended in 0.1 % formic acid in water, assayed for extraction recovery and analyzed for metabolite profiling. A control plasma sample spiked with [^14C]pomalidomide was extracted in a similar manner to determine the extraction efficiency and stability of [^14C]pomalidomide.
as §1, §2
For pomalidomide and metabolite concentrations in plasma based on metabolite profiling data, pharmacokinetic data were generated by non-compartmental analysis of plasma versus time profiles using WinNonlin (version 4.1, Enterprise Edition).

PBMC TNF-α production = assay: Inhibition of TNF-α production by LPS-stimulated human PBMC (1-day culture); format: cell-based; conditions: 24 h
Procedure: (§3) Metabolites and hydrolysis products of pomalidomide were tested for pharmacological activity in the following three assay systems: (1) inhibition of MM cell proliferation, (2) enhancement of primary human T cell IL-2 production and (3) inhibition of TNF-α production by lipopolysaccharide (LPS)-stimulated human peripheral blood mononuclear cells (PBMC). For all three assay types, compounds were dissolved in 100 % dimethyl sulfoxide (DMSO) and diluted into complete cell culture medium, consisting of Roswell Park Memorial Institute (RPMI)-1640 plus penicillin, streptomycin and L-glutamine (Mediatech, Manassas, VA). The MM cell proliferation cell culture medium contained 10 % fetal bovine serum, while the primary human cell cultures contained 10 % human AB serum (Invitrogen, Brown Deer, WI). The final DMSO concentration in the cell culture media was 0.25 %.
(§4) The human MM cell line OPM-2 was obtained from DSMZ (Braunschweig, Germany), and human MM cell lines U266 B1 and NCI-H929 were obtained from ATCC (Manassas, VA). Inhibition of MM cell proliferation was assessed by the [^3H]-thymidine incorporation assay in a 3-day culture in the presence of compounds in complete medium, as previously described. Primary human T cells were isolated from PBMC by negative selection using the RosetteSep T Cell Enrichment Cocktail (STEMCELL Technologies, Tukwila, WA) according to the manufacturer’s procedures. Costimulation of T cell IL-2 production was measured in a 2-day culture of primary human T cells isolated from healthy donors stimulated with anti-CD3 antibody in the presence of compounds, as previously described. Inhibition of TNF-α production by LPS-stimulated human PBMC was measured in a 1-day culture in the presence of compound, as previously described.

U266 MM cell = assay: Inhibition of MM cell proliferation ([3H]-thymidine incorporation, 3-day culture); format: cell-based; conditions: Homo sapiens, U-266
Procedure: as §3, §4

H929 MM cell = assay: as above; format: cell-based; conditions: Homo sapiens, NCI-H929
Procedure: as §3, §4

OPM-2 MM cell = assay: as above; format: cell-based; conditions: Homo sapiens
Procedure: as §3, §4

T cell IL-2 production = assay: Enhancement of primary human T cell IL-2 production (anti-CD3 stimulated, 2-day culture); format: cell-based; conditions: 48 h, anti-CD3 stimulated primary human T cells
Procedure: as §3, §4

[5] = plasma, radiochromatography, geometric mean (%CV)

Compound: Nc1cccc2c1C(=O)N([C@@H]1CCC(=O)NC1=O)C2=O (single isomer, unassigned) [R-enantiomer]
C max [1]: 6.36 ± 2.08 ng/mL | AUC0−t [1]: 67.7 ± 33.8 ng·h/mL | AUC0−∞ [1]: 95.1 ± 46.1 ng·h/mL | t ½ [1]: 9.5 ± 3.2 h | T max [1]: 3.0 (2.5–6.0) h

Compound: Nc1cccc2c1C(=O)N([C@H]1CCC(=O)NC1=O)C2=O (single isomer, unassigned) [S-enantiomer]
C max [1]: 6.78 ± 1.99 ng/mL | AUC0−t [1]: 66.9 ± 34.1 ng·h/mL | AUC0−∞ [1]: 96.4 ± 58.2 ng·h/mL | t ½ [1]: 8.8 ± 4.5 h | T max [1]: 3.0 (1.0–6.0) h

Compound: Nc1cccc2c1CN(C1CCC(=O)NC1=O)C2=O (stereo not drawn) [Lenalidomide, lenalidomide]
Percent dose excreted in human urine, Metabolites (oxidative and conjugative) [2]: 5.3% | Percent dose excreted in human urine, Parent [2]: 81.7% | Percent dose excreted in human urine, Total [2]: 90.3% | Percent dose excreted in human urine, Parent ([2]; listed as lenalidomide): > 80% | Percent dose excreted in human urine, Total ([2]; listed as lenalidomide): > 90%

More lines, main results first:

% of dose excreted, Urine [3]: 1.4% | Plasma (% AUC relative to TRA) ([4]; AUC0–24 (unchanged drug or metabolite)/AUC0–24 (TRA) * 100 %): 1.7% | Tmax ([4]; human, oral, 2 mg, plasma, radiochromatography, median and range): 6 h | half-life ([4]; male, human, plasma, oral, 2 mg, plasma, radiochromatography, geometric mean (%CV), read-out: t ½ (converted)): 13.2 h | AUC/AUCTRA ([4]; plasma exposure relative to total radioactivity): 1.71% | AUC0–24 [4, 5]: 3.31 (28.4) ngEq*h/mL | AUC0−∞ [4, 5]: 4.27 (12.7) ngEq*h/mL | C max [4, 5]: 0.238 (36.3) ngEq/mL
Compound: Nc1cccc(C(=O)O)c1C(=O)O [Metabolite M2, 3-Aminophthalic acid]

% of dose excreted, Feces ([3]; pooled feces 0–96 h): 0.3% | % of dose excreted, Urine [3]: 1.5% | IC50 (U266 MM cell): > 1 µM | IC50 (H929 MM cell): > 1 µM | EC50 (T cell IL-2 production): 0.72 µM
Compound: NC(=O)C(CCC(=O)O)N1C(=O)c2cccc(N)c2C1=O (stereo not drawn) [Metabolite M10]
IC50 (PBMC TNF-α production): > 10 µM | IC50 (OPM-2 MM cell): > 1 µM
